Laboratory results: US20080249317A1 (APOTEX INC., priority 2007, published 2008)
Structures can show the parent of a compound that is named as a salt.

What was measured:
[1] = acidic medium such as gastric fluid; background statement; cited from earlier work
[2] = Dissolution of 1 gram of crystalline carvedilol phosphate in methanol; assay type: physicochemical
Text: The improved solubility by the addition of acetic acid is exemplified by the following results.

Compound	solubility [1]	methanol in which a solution was formed ([2]; containing 2% acetic acid (w/w relative to the carvedilol), solution formed rapidly) [mL]	methanol required for dissolution ([2]; in the absence of acetic acid)
COc1ccccc1OCCNCC(O)COc1cccc2[nH]c3ccccc3c12 (stereo not drawn) [hydrochloride salt, 1,1-(9H-Carbazol-4-yloxy)-3-[[2-(2-methoxyphenoxy)ethyl]amino]-2-propanol]	reduced solubility		
carvedilol phosphate [crystalline carvedilol phosphate]		3	about 100 mL
